Our source for the Ki values is US6759420B1, “Arylalkanoyl derivatives, processes for their preparation, their use and pharmaceutical compositions containing them” (Aventis Pharma Deutschland GmbH, priority 1999, dated 2004).

Where a name gives a salt, the structure may show the parent alone.

This test addresses factor Xa (Homo sapiens, UniProt P00742). Briefly: Factor Xa assay (Test 1a), chromogenic. It counts as biochemical. Also on record: purchased Enzyme Research Laboratories, Inc; South Bend, Ind. The following applies: in vitro factor Xa assay Test 1a; human factor Xa 0.5 nM, substrate S-2765 140 μM, 25° C.; Ki from IC50 corrected for substrate competition. An excerpt: The ability of a compound of formula (I) to inhibit factor Xa, thrombin, plasmin, elastase, and trypsin may be assessed by determining the concentration of compound of formula (I) that inhibits enzyme activity by 50% (IC50). Purified enzymes are used in chromogenic assays. To determine the inhibition constant, the IC50 value is corrected for competition with substrate using the formula:
Ki=IC50×(1/{1+((substrate concentration)/substrate Km)})
where Km is the Michaelis-Menten constant. Y. -C. Chen and W. H. Prusoff, Biochem. Pharmacol. 22: […] (1973), which is incorporated herein by reference.
TBS-PEG buffer (50 mM Tris-Cl, pH 7.8, 200 mM NaCl, 0.05% (w/v) PEG-8000, 0.02% (w/v) NaN3) is used for this assay. The IC50 is determined by combining in appropriate wells of a Costar half-area microtiter plate 25 μl human factor Xa (Enzyme Research Laboratories, Inc.; South Bend, Ind.) in TBS-PEG; 40 μl 10% (v/v) DMSO in TBS-PEG (uninhibited control) or various concentrations of the compound to be tested diluted in 10% (v/v) DMSO in TBS-PEG; and substrate S-2765 (N-benzyloxycarbonyl-D-Arg-Gly-L-Arg-p-nitroanilide; Kabi Pharmacia, Inc.; Franklin Ohio) in TBS-PEG.
The assays are performed by pre-incubating the compound of formula (I) plus enzyme for 10 min, then the assay is initiated by adding substrate to obtain a final volume of 100 μl. The initial velocity of chromogenic substrate hydrolysis is measured by the change in absorbance at 405 nm using a Bio-tek Instruments kinetic plate reader (Ceres UV900HDi) at 25° C. during the linear portion of the time course (usually 1.5 min after addition of substrate). The concentration of inhibitor that causes a 50% decrease in the rate of substrate hydrolysis is predicted by linear regression after plotting the relative rates of hydrolysis (compared to the uninhibited control) versus the log of the compound of formula (I) concentration. The enzyme concentration is 0.5 nM and substrate concentration is 140 μM.

Chain of factor Xa (P00742 235-488 limits assumed): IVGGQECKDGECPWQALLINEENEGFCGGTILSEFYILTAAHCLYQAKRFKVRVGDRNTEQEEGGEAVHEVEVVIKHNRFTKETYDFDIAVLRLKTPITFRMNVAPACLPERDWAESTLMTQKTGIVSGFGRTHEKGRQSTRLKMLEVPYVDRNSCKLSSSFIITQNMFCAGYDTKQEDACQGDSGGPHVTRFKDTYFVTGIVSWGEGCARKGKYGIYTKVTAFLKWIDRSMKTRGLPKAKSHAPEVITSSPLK
Chain of factor Xa (P00742 41-179 limits assumed): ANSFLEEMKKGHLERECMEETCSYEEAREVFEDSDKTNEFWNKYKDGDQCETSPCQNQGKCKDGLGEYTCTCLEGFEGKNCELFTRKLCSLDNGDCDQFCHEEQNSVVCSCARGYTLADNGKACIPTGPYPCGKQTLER

As a reminder, the Ki is the equilibrium dissociation constant of an inhibitor or competing ligand from its target. In turn, `CC(=N)N1CCC(CNC(=O)C(NC(=O)C(Cc2ccc(C(=N)N)cc2)C2CCCCC2)C2CCCCC2)CC1` (single isomer, unassigned; less polar) [Example 137] showed a Ki of 4 nM.

With `N=C(N)c1ccc(CC(C(=O)N[C@H](C(=O)NCC2CCN(C(=N)N)CC2)C2CCCCC2)c2ccc(C(F)(F)F)cc2)cc1` (single isomer, unassigned; less polar) [Example 232], the Ki is 24 nM.

Turning to `N=C(N)NCCC[C@H](NC(=O)[C@@H](NC(=O)C(Cc1ccc(C(=N)N)cc1)c1ccc2ccccc2c1)C1CCCCC1)C(=O)O` (mixture of isomers) [Example 79, 2-(S)-{2-(S)-[3-(4-Carbamimidoyl-phenyl)-2-(R,S)-naphthalen-2-yl-propionyl-amino]-2-cyclohexyl-acetylamino}-5-guanidino-pentanoic acid trifluoroacetic acid salt], affinity was put at a Ki of 22.5 nM. This Ki and that of the molecule before are within 1.5-fold of each other.

As for `N=C(N)c1ccc(CC(C(=O)NC(C(=O)NCC2CCN(C(=N)N)CC2)C2CCCCC2)c2cccc(Cl)c2)cc1` (single isomer, unassigned; less polar) [Example 176], the Ki is 1 nM.

In the case of `N=C(N)NCCC[C@H](NC(=O)C(NC(=O)C(Cc1ccc(C(=N)N)cc1)C1CCCCC1)C1CCCCC1)C(=O)NCc1ccccc1` (stereo partly drawn) [Example 196, 2-(S)-{2-[3-(4-Carbamimidoyl-phenyl)-2-cyclohexyl-propionylamino]-2-cyclohexyl-acetylamino}-5-guanidino-pentanoic acid benzylamide trifluoroacetic acid salt], the Ki amounted to 39 nM.

In turn, `N=C(N)NCCCC(NC(=O)C(NC(=O)C(Cc1ccc(C(=N)N)cc1)c1cccc(Cl)c1)C1CCCCC1)C(N)=O` (single isomer, unassigned; less polar) [Example 124] registered a Ki of 1 nM.

Regarding `N=C(N)c1ccc(CC(C(=O)NC(C(=O)NCCN2C(=O)CNC2=O)C2CCCCC2)C2CCCCC2)cc1` (single isomer, unassigned; less polar) [Example 7], the affinity, expressed as Ki, was 7650 nM.

Turning to `Cc1ccccc1C(Cc1ccc(C(=N)N)cc1)C(=O)NC(C(=O)NCC1CCN(C(=N)N)CC1)C1CCCCC1` (single isomer, unassigned; less polar) [Example 163], the affinity, expressed as Ki, was 1 nM.

With `CN(C(=O)C(Cc1ccc(C(=N)N)cc1)c1cccnc1)[C@@H](Cc1ccccc1)C(=O)N[C@@H](CCCNC(=N)N)C(N)=O` (mixture of isomers) [Example 26, 2-(S)-(2-(S)-{[3-(4-Carbamimidoyl-phenyl)-2-(R,S)-pyridin-3-yl-propionyl]-methyl-amino}-3-phenyl-propionylamino)-5-guanidino-pentanoic acid amide trifluoroacetic acid salt], the Ki was 1070 nM.

Turning to `N=C(N)c1ccc(CC(C(=O)N[C@H](C(=O)NCC2CCN(C(=N)N)CC2)C2CCCCC2)c2ccccc2F)cc1` (single isomer, unassigned; less polar) [Example 235], the affinity, expressed as Ki, was 12 nM.

For the molecule `N=C(N)NCCCC(NC(=O)C(NC(=O)C(Cc1ccc(C(=N)N)cc1)c1cccc(Br)c1)C1CCCCC1)C(N)=O` (single isomer, unassigned; less polar) [Example 133], the affinity corresponds to a Ki of 1 nM.

The molecule `COc1ccc(CNC(=O)C(CCCNC(=N)N)NC(=O)C(NC(=O)C(Cc2ccc(C(=N)N)cc2)C2CCCCC2)C2CCCCC2)cc1` [Example 202, 2-(S)-{2-[3-(4-Carbamimidoyl-phenyl)-2-cyclohexyl-propionylamino]-2-cyclohexyl-acetylamino}-5-guanidino-pentanoic acid 4-methoxy-benzylamide trilfuoroacetic acid salt] gave a Ki of 28 nM.

Molecule `N=C(N)NCCCC(NC(=O)C(NC(=O)C(Cc1ccc(C(=N)N)cc1)C1CCCCC1)C1CCCCC1)C(N)=O` (single isomer, unassigned; less polar) [Example 4] came in with an inhibition constant (Ki) of 2 nM.

`CC(C)OC(=O)[C@H](CCCNC(=N)N)NC(=O)[C@@H](NC(=O)C(Cc1ccc(C(=N)N)cc1)c1cccc(Br)c1)C1CCCCC1` (single isomer, unassigned; less polar) [Example 242] gave a Ki of 2 nM. In other words, the single-digit nanomolar range.

On to `Cc1ccc(C(Cc2ccc(C(=N)N)cc2)C(=O)NC(C(=O)NCc2ccc(C(=N)N)cc2)C2CCCCC2)cc1` (single isomer, unassigned; more polar) [Example 153], for which the affinity corresponds to a Ki of 5840 nM.

Consider `Cc1ccccc1C(Cc1ccc(C(=N)N)cc1)C(=O)NC(C(=O)NCC1CCN(C(=N)N)CC1)C1CCCCC1` (single isomer, unassigned; more polar) [Example 162], for which the affinity, expressed as Ki, was 25 nM.

Turning to `N=C(N)NCCC[C@H](NC(=O)[C@H](Cc1ccccc1)NC(=O)C(Cc1ccc(C(=N)N)cc1)c1cccnc1)C(N)=O` (mixture of isomers) [Example 106, 2-(S)-{2-(S)-[3-(4-Carbamimidoyl-phenyl)-2-(R,S)-pyridin-3-yl-propionylamino]-3-phenyl-propionylamino}-5-guanidino-pentanoic acid amide trifluoroacetic acid salt], the Ki was 67 nM.

As to `Cc1ccc(C(Cc2ccc(C(=N)N)cc2)C(=O)N[C@H](C(=O)N[C@@H](CCCNC(=N)N)C(N)=O)C2CCCCC2)cc1` (mixture of isomers) [Example 141, 2-(S)-{2-(S)-[3-(4-Carbamimidoyl-phenyl)-2-(R,S)-p-tolyl-propionylamino]-2-cyclohexyl-acetylamino}-5-guanidino-pentanoic acid amide hydrochloric acid salt], the Ki was 100 nM.

As to `N=C(N)NCCCC(NC(=O)C(NC(=O)C(Cc1ccc(C(=N)N)cc1)c1cccc(Cl)c1)C1CCCCC1)C(N)=O` (single isomer, unassigned; more polar) [Example 125], the affinity, expressed as Ki, was 2570 nM.

Turning to `N=C(N)NCCC[C@H](NC(=O)C(NC(=O)C(Cc1ccc(C(=N)N)cc1)C1CCCCC1)C1CCCCC1)C(=O)NCc1ccncc1` (stereo partly drawn) [Example 194, 2-(S)-{2-[3-(4-Carbamimidoyl-phenyl)-2-cyclohexyl-propionylamino]-2-cyclohexyl-acetylamino}-5-guanidino-pentanoic acid (pyridin-4-ylmethyl)-amide trifluoroacetic acid salt], the Ki turned out to be 34 nM.

`N=C(N)c1ccc(CNC(=O)[C@@H](NC(=O)C(Cc2ccc(C(=N)N)cc2)c2ccc3ccccc3c2)C2CCCCC2)cc1` (mixture of isomers) [Example 228, N-[(S)-(4-Carbamimidoyl-benzylcarbamoyl)-cyclohexyl-methyl]-3-(4-carbamimidoyl-phenyl)-2-(R,S)-naphthalen-2-yl-propionamide hydrochloric acid salt] registered a Ki of 3 nM.

For the molecule `N=C(N)NCCC[C@H](NC(=O)[C@H](CO)NC(=O)C(Cc1ccc(C(=N)N)cc1)c1ccccc1)C(N)=O` (mixture of isomers) [Example 57, 2-(S)-{2-(S)-[3-(4-Carbamimidoyl-phenyl)-2-(R,S)-phenyl-propionylamino]-3-hydroxy-propionylamino}-5-guanidino-pentanoic acid amide trifluoroacetic acid salt], the affinity corresponds to a Ki of 1930 nM.

Take `CCC(C)[C@@H](C(=O)N[C@@H](CCCNC(=N)N)C(N)=O)N(C)C(=O)C(Cc1ccc(C(=N)N)cc1)c1cccnc1` (mixture of isomers) [Example 18, 2-(S)-{[3-(4-Carbamimidoyl-phenyl)-2-(R,S)-pyridin-3-yl-propionyl]-methyl-amino}-3-methyl-pentanoic acid (1-(S)-carbamoyl-4-guanidino-butyl)-amide trifluoroacetic acid salt]: the Ki is 310 nM.

The molecule `N=C(N)c1ccc(CC(C(=O)NC(C(=O)NCC2CCN(C(=N)N)CC2)C2CCCCC2)C2CCCCC2)cc1` (single isomer, unassigned; less polar) [Example 113] showed a Ki of 6 nM. Against the preceding molecule, the Ki is about 52-fold lower.

Regarding `N=C(N)c1ccc(CNC(=O)C(NC(=O)C(Cc2ccc(C(=N)N)cc2)c2cccc(Br)c2)C2CCCCC2)cc1` (single isomer, unassigned; less polar) [Example 151], the Ki was 4 nM.

`N=C(N)NCCC[C@H](NC(=O)[C@@H](NC(=O)C(Cc1ccc(C(=N)N)cc1)c1ccc2ccccc2c1)C1CCCCC1)C(N)=O` (mixture of isomers) [Example 95, 2-(S)-{2-(S)-[3-(4-Carbamimidoyl-phenyl)-2-(R,S)-naphthalen-2-yl-propionylamino]-2-cyclohexyl-acetylamino}-5-guanidino-pentanoic acid amide trifluoroacetic acid salt] had an inhibition constant (Ki) of 9.1 nM.

`C[n+]1ccc(CNC(=O)[C@@H](NC(=O)C(Cc2ccc(C(=N)N)cc2)c2ccccc2)C2CCCCC2)cc1` (single isomer, unassigned; less polar) [Example 86]: the affinity, expressed as Ki, was 600 nM.
